Assay results from patent US20120035531A1, “ON-DEMAND AND REVERSIBLE DRUG RELEASE BY EXTERNAL CUE” (PRESIDENT AND FELLOWS OF HARVARD COLLEGE, priority 2009, published 2012).

How the values were obtained:
MCF7 breast cancer cells = assay: Bioactivity of ultrasound-released Mitoxantrone: MCF7 cell viability; type: cell-based; details: 24 hours, ultrasound-released vs fresh Mitoxantrone solution 0.1 to 20 μg/mL
Method: The bioactivity of the released Mitoxantrone in example 1 was studied by incubating MCF7 breast cancer cells in the Mitoxantrone solution, and measuring the cell viability after 24 hours. Fresh Mitoxantrone solutions (unmixed with polymer) with various concentrations ranging from 0.1 to 20 μg/mL were also used to incubate the same number of MCF7 breast cancer cells.

[1] = In vitro release of encapsulated Mitoxantrone from alginate hydrogel with ultrasound; type: physicochemical
Method: Alginate hydrogels containing 0.825 mg/mL of Mitoxantrone were prepared by mixing alginate aqueous solution with slurries of CaSO4, to a final concentration of 50 mM Ca^2+ and 2% alginate (w/w) polymer. The gel was cast between two glass slides and cut into discs of approximately 10 mm diameter and 2 mm thickness. Thereafter, hydrogels were swollen overnight in the commercially available Dulbecco's Modified Eagle's Medium (DMEM). Hydrogel disks so prepared were next placed in a 15 mL plastic tube with 5 ml of DMEM. One group of the sample hydrogels were subjected to low-frequency ultrasound with frequency of 20 KHz and intensity of 1 watt for 5 min per hour. A further group comprising control hydrogels, similarly prepared, were not subjected to any stimulation. FIGS. 1A and 1B show the power profiles of ultrasound on the two groups of hydrogels.

Structure (SMILES): O=C1c2c(O)ccc(O)c2C(=O)c2c(NCCNCCO)ccc(NCCNCCO)c21 [Mitoxantrone]
- cell viability (MCF7 breast cancer cells): reduces cell viability by the same amount as a fresh Mitoxantrone solution of equivalent concentration
- level of enhanced release rates across ultrasound pulses ([1]; 20 KHz, 1 watt, 5 min per hour): all on the same level
- increase of cumulative release amount ([1]; 5 min of ultrasound per hour, 20 KHz, 1 watt, vs control hydrogels): ~70%
- increase of release rates by ultrasound stimulation ([1]; alginate hydrogel 0.825 mg/mL Mitoxantrone in DMEM, 20 KHz, 1 watt, 5 min per hour, vs no stimulation): approximately 10 times
- rate of release after removing the ultrasound ([1]; alginate hydrogel in DMEM): decayed to negligible levels
